Data from patent US8507483B2, “1H-pyrimidin-2-one derivatives, preparation thereof and pharmaceutical use thereof as inhibitors of AKT (PKB) phosphorylation” (Sanofi, priority 2009, dated 2013).

System: AKT protein phosphorylated on serine 473 in PC3 human prostate carcinoma cells
Experiment: pAKT expression in PC3 cells measured by western blotting (test A)
Assay type: cell-based
Conditions: PC-3, inhibition of AKT Ser473 phosphorylation, 1 to 2 hours incubation, absolute IC50, mean of two experiments
Description: (§1) The inhibitory activity of the molecules on AKT phosphorylation is measured either by western blotting using the technique described below, or by the MSD Multi-spot Biomarker detection technique from Meso Scale Discovery also described below.
Study of pAKT expression in PC3 human prostate carcinoma cells measured by western blotting (test A):
This test is based on measuring the expression of the AKT protein phosphorylated on serine 473. The phosphorylation of AKT (pAKT) is measured by western blotting in the PC3 human prostate carcinoma line (ATCC CRL-1435), using an antibody that specifically recognises pAKT-5473.
(§2) On day 1, the PC3 cells are seeded into 6-well plates (TPP, #92006) at the concentration of 0.8×10^6 cells/well in 1800 μl of DMEM medium (DMEM Gibco #11960-044) containing 10% of foetal calf serum (SVF Gibco, #10500-056) and 1% glutamine (L-Glu Gibco #25030-024), and incubated at 37° C., 5% CO2, overnight.
(§3) On day 2, the cells are incubated in the presence or absence of the test products for 1 to 2 hours at 37° C. in the presence of 5% CO2. The molecules, diluted in dimethyl sulphoxide (DMSO Sigma #D2650), are added from a 10-times concentrated stock solution, the final percentage of DMSO being 0.1%. The molecules are tested either at a single concentration of less than or equal to 10 μM, or at increasing concentrations in a range that can extend from less than 1 nM to 10 μM.
After this incubation, the cells are lysed for the preparation of the proteins. After the culture medium has been drawn off, the cells are rinsed with 1 ml of PBS (DPBS Gibco, #14190-094), recovered by scraping in 200 μl of complete HNTG buffer and transferred into a 96-well plate (Greiner #651201), and lysed for 1 h on ice. The HNTG buffer is composed of the following mixture: 50 mM hepes, 150 mM NaCl, 1% triton, 10% glycerol, with extemporaneous addition of one Mini Protease Inhibitor Cocktail tablet (Roche 1836153) and of one Phosphatase Inhibitor Cocktail tablet (Roche 104906837001) per 10 ml of buffer.
The lysate is centrifuged for 10 min at 6000 rpm. 155 μl of supernatant are recovered. 150 μl are incubated for denaturation for 5 min at 95° C. in the presence of 4× NuPAGE LDS Sample Buffer diluted 4-fold (InVitrogen ref NP0007) and of 10× NuPAGE Sample Reducing Agent diluted 10-fold (InVitrogen ref NP0009). These samples are then frozen at −20° C. 5 μl are assayed by the microBCA technique according to the technical bulletin of the MicroBCA Protein Assay Kit (Pierce #23235).
For protein separation, 20 μg of proteins are loaded on to a NU-PAGE 4-12% Bis Tris Gel 12 well (InVitrogen ref NP0322BOX) and the migration is carried out for 1 h 30 in 20×NU-PAGE MOPS SDS Running Buffer diluted 20-fold (InVitrogen ref NP0001), at 150 volts.
The gel is then transferred onto an Invitrolon PVDF membrane (Invitrogen #LC2007) permeabilised beforehand for a few seconds in ethanol (Ethanol Fischer Scientific #E/0600DF/15).
The transfer is carried out in a Biorad tank at 30 volts overnight or at 60 volts for 3 hours, in the presence of 20× NUPAGE Transfer Buffer diluted 20-fold (InVitrogen ref NP0006).
The membrane is then saturated in saturating solution composed of TBS (10× Tris Buffered Saline, Sigma #T5912, diluted 10-fold), 0.1% Tween 20 (Sigma #P5927) and 3% BSA (Bovine Serum Albumin Fraction V, Sigma #A4503) for 6 h after overnight transfer or else for 1 h after transfer for a period of 3 h.
The primary antibodies are diluted to 1/1000th for the anti-phospho AKT-Ser473 antibody (193H2, rabbit monoclonal, cat#4058 from Cell Signaling Technology) Abcam), in saturating solution composed of […], 0.1% Tween 20 and 3% BSA, and then shaken overnight at 4° C.
Two rinses for 5 min in washing solution composed of TBS and 0.1% Tween 20 are carried out before hybridisation of the secondary antibodies. […]

IC50 [nM] | Structure (SMILES)
388 | O=c1cc(N2CCOCC2)nc(Cc2nc3ccccc3o2)[nH]1 [Example 2, 2-(1,3-benzoxazol-2-ylmethyl)-6-(morpholin-4-yl)pyrimidin-4(3H)-one]
1010 | O=c1cc(N2CCOCC2)nc(Cc2nc3cc(F)c(F)cc3[nH]2)[nH]1 [Example 5, 2-[(5,6-difluoro-1H-benzimidazol-2-yl)methyl]-6-(morpholin-4-yl)pyrimidin-4(3H)-one]

System: AKT protein phosphorylated on serine 473 (P-AKT-S473) in PC3 human prostate carcinoma cells
Experiment: pAKT expression in PC3 cells measured by MSD Multi-spot Biomarker Detection (Test B)
Assay type: cell-based
Conditions: PC-3, inhibition of AKT Ser473 phosphorylation, 1 to 2 h incubation, MSD sandwich immunoassay, absolute IC50, mean of two experiments
Description: as §1
Where appropriate, the activity of the products is translated into approximately IC50, obtained from a dose-response curve of various concentrations tested and representing the dose giving 50% of specific inhibition (absolute IC50). Two independent experiments make it possible to calculate the mean of the IC50s. Study of pAKT expression in PC3 human prostate carcinoma cells measured by the MSD Multi-spot Biomarker Detection technique from Meso Scale Discovery (Test B): This test is based on measuring the expression of the AKT protein phosphorylated on serine 473 (P-AKT-S473), in the PC3 human prostate carcinoma line, by means of the technique based on a sandwich immunoassay using the MSD Multi-spot Biomarker Detection kit from Meso Scale Discovery: phospho-Akt (Ser473) whole cell lysate kit (#K151 CAD) or phospho-Akt (Ser473)/Total Akt whole cell lysate kit (#K151OOD).
The primary antibody specific for P-AKT-5473 (Kit #K151 CAD) is coated onto an electrode in each well of the 96-well plates of the MSD kit: after the addition of a protein lysate to each well, the signal is visualised by adding a secondary detection antibody labelled with an electrochemoluminescent compound. The procedure followed is that described in the kit.
as §2, with “96-well” for “6-well”, “#92096)” for “#92006)”, “35 000” for “0.8×10^6”, “200” for “1800”, “(FCS” for “(SVF”
as §3, with “h” for “hours”, “5% of” for “5%”, “20-times” for “10-times”
After this incubation, the cells are lysed for the preparation of the proteins. For this, after the culture medium has been drawn off, […] of complete Tris Lysis Buffer of the MSD kit containing the protease and phosphatase inhibitor solutions are added to the wells and the cells are lysed for 1 h at 4° C. with shaking At this stage, the plates containing the lysates can be frozen at −20° C. or at −80° C.
The wells of the 96-well plates of the MSD kit are saturated for 1 h at ambient temperature with the blocking solution of the MSD kit. Four washes are carried out with 150 μl of Tris Wash Buffer of the MSD kit. The lysates previously prepared are transferred into the 96-well multi-spot plates of the MSD kit and incubated for 1 h at ambient temperature, with shaking Four washes are carried out with 150 μl of Tris Wash Buffer of the MSD kit. 25 μl of the MSD sulpho-tag detection antibody solution are added to the wells and incubated for 1 h at ambient temperature, with shaking Four washes are carried out with 150 μl of Tris Wash Buffer of the MSD kit. 150 μl of Read Buffer of the MSD kit are added to the wells and the plates are read immediately on the 512400 instrument from Meso Scale Discovery.
The instrument measures a signal for each well. Wells without cells and containing the lysis buffer serve to determine the background noise that will be subtracted from all the measurements (min). The wells containing cells in the absence of product and in the presence of 0.1% DMSO are considered to be the 100% signal (max). The percentage inhibition is calculated for each concentration of test product according to the following formula: (1−((test−min)/(max−min)))×100. […]

IC50 [nM] | Structure (SMILES)
961 | O=c1cc(N2CCOCC2)nc(Cc2nc3ccc(C(F)(F)F)cc3[nH]2)[nH]1 [Example 26, 6-(morpholin-4-yl)-2-{[6-(trifluoromethyl)-1H-benzimidazol-2-yl]methyl}pyrimidine-4(3H)-one]
256 | O=c1cc(N2CCOCC2)nc(Cc2nc3cc(F)c(Cl)cc3[nH]2)[nH]1 [Example 27, 2-[(5-chloro-6-fluoro-1H-benzimidazol-2-yl)methyl]-6-(morpholin-4-yl)pyrimidin-4(3H)-one]
585 | O=c1cc(N2CCOCC2)nc(Cc2nc3c(F)c(F)ccc3[nH]2)[nH]1 [Example 28, 2-[(6,7-difluoro-1H-benzimidazol-2-yl)methyl]-6-(morpholin-4-yl)pyrimidine-4(3H)-one]
506 | Cc1cc2nc(Cc3nc(N4CCOCC4)cc(=O)[nH]3)[nH]c2cc1Cl [Example 29, 2-[(5-chloro-6-methyl-1H-benzimidazol-2-yl)methyl]-6-(morpholin-4-yl)pyrimidin-4(3H)-one]
1340 | N#CCn1c(Cc2nc(N3CCOCC3)cc(=O)[nH]2)nc2ccccc21 [Example 30, (2-{[4-(morpholin-4-yl)-6-oxo-1,6-dihydropyrimidin-2-yl]methyl}-1H-benzimidazol-1-yl)acetonitrile]
144 | O=c1cc(N2CCOCC2)nc(Cc2nc3cc(F)cc(F)c3[nH]2)[nH]1 [Example 31, 2-[(5,7-difluoro-1H-benzimidazol-2-yl)methyl]-6-(morpholin-4-yl)pyrimidine-4(3H)-one]
206 | CC(c1ccccc1)n1c(Cc2nc(N3CCOCC3)cc(=O)[nH]2)nc2cc(Cl)ccc21 (stereo not drawn) [Example 32, 2-{[5-chloro-1-(1-phenylethyl)-1H-benzimidazol-2-yl]methyl}-6-(morpholin-4-yl)pyrimidine-4(3H)-one]
142 | O=c1cc(N2CCOCC2)nc(Cc2nc3ccccc3n2C2CCCCC2)[nH]1 [Example 33, 2-[(1-cyclohexyl-1H-benzimidazol-2-yl)methyl]-6-(morpholin-4-yl)pyrimidin-4(3H)-one]
208 | O=c1cc(N2CCOCC2)nc(Cc2nc3cc(F)c(F)c(F)c3[nH]2)[nH]1 [Example 34, 6-(morphlolin-4-yl)-2-[(5,6,7-trifluoro-1H-benzimidazol-2-yl)methyl]pyrimidin-4(3H)-one]
115 | O=c1cc(N2CCOCC2)nc(Cc2nc3c(Br)cc(F)cc3[nH]2)[nH]1 [Example 35, 2-[(4-bromo-6-fluoro-1H-benzimidazol-2-yl)methyl]-6-(morpholin-4-yl)pyrimidin-4(3H)-one]
28 | Cn1c(Cc2nc(N3CCOCC3)cc(=O)[nH]2)nc2ccc(Br)cc21 [Example 36, 2-[(6-Bromo-1-methyl-1H-benzimidazol-2-yl)methyl]-6-(morpholin-4-yl)pyrimidin-4(3H)-one]
15 | Cn1c(Cc2nc(N3CCOCC3)cc(=O)[nH]2)nc2ccc(F)c(F)c21 [Example 37, 2-[(6,7-Difluoro-1-methyl-1H-benzimidazol-2-yl)methyl]-6-(morpholin-4-yl)pyrimidin-4(3H)-one]
65 | Cn1c(Cc2nc(N3CCOCC3)cc(=O)[nH]2)nc2cc(Cl)c(Cl)cc21 [Example 38, 2-[(5,6-Dichloro-1-methyl-1H-benzimidazol-2-yl)methyl]-6-(morpholin-4-yl)pyrimidin-4(3H)-one]
100 | Cn1c(Cc2nc(N3CCOCC3)cc(=O)[nH]2)nc2cc(F)c(F)c(F)c21 [Example 39, 6-(Morpholin-4-yl)-2-[(5,6,7-trifluoro-1-methyl-1H-benzimidazol-2-yl)methyl]pyrimidin-4(3H)-one]
44 | O=c1cc(N2CCOCC2)nc(Cc2nc3c(O)cccc3o2)[nH]1 [Example 40, 2-[(4-hydroxy-1,3-benzoxazol-2-yl)methyl]-6-(morpholin-4-yl)pyrimidin-4(3H)-one]
32 | Cn1c(Cc2nc(N3CCOCC3)cc(=O)[nH]2)nc2cccc(Br)c21 [Example 41, 2-[(7-Bromo-1-methyl-1H-benzimidazol-2-yl)methyl]-6-(morpholin-4-yl)pyrimidin-4(3H)-one]
